In publication PMC9186362, “Design and biological evaluation of substituted 5,7-dihydro-6H-indolo[2,3-c]quinolin-6-one as novel selective Haspin inhibitors” (Journal of Enzyme Inhibition and Medicinal Chemistry, 2022):

How the values were obtained:
[1] = system: endogenous Haspin (H3T3ph) in U-2 OS cells; assay: Endogenous Haspin activity, H3T3ph immunofluorescence; type: cell-based, human; conditions: 0.5 µM, 16 h, early mitotic U-2 OS cells
Experimental: U-2 OS cells were grown on glass coverslips, treated for 16 h than fixed with 4% paraformaldehyde in PBS, permeabilized by 0.15% Triton-X100 for 2 min, blocked for 15 min in 4% BSA in PBS and processed using standard immunofluorescence protocols. Primary antibodies included anti-phospho-Thr3 Histone H3 (1/1000 dilution, Millipore) and anti-α-tubulin (1/5000 dilution, clone B512, Sigma). Images were acquired with a Coolsnap HQ2 CCD camera (Photometrics) on a Zeiss Axio microscope (Carl Zeiss) using a 63x NA 1.40 objective. Image acquisition and processing were performed using Metamorph (Molecular Device). Quantification of signal intensity was performed using ImageJ software (NIH).

MmCLK1 = MmCLK1 (Mus musculus, UniProt P22518); assay: ADP-Glo kinase assay; type: biochemical, Mus musculus (Mm)
Experimental: Kinase activities were determined using the ADP-Glo methodology (ADP-Glo Kinase Assay; Promega) according to the assay described by Nguyen et al.[32] except for MmCLK1. The later was assayed in the following buffer: 10 mM MgCl2, 1 mM EGTA, 1 mM DTT, 25 mM Tris-HCl pH 7.5, 50 µg/ml heparin, 0.15 mg/ml BSA, with 0.027 µg/µl of the following peptide: GRSRSRSRSRSR as substrate.

U-2 OS cells = assay: Cell cycle analysis by flow cytometry; type: cell-based, human; conditions: 1 µM, 24 h
Experimental: After treatment with the compounds, cells were trypsinized and washed once in PBS. Cells were fixed for 1 h in ice-cold 70% ethanol, then washed once in PBS, centrifuged at 200 g and resuspended in a PBS buffer containing 100 µg/ml RNase A (Thermo Scientific) and 40 µg/ml propidium iodide (Life Technologies). DNA content was determined using a flow cytometer Attune^TM NxT (Thermofisher) and ten thousand events were collected in each run. The data were analysed using FCS Express 7 Pro software (De Novo).

U-2 OS spheroids = assay: 3D spheroid viability; type: cell-based, human; conditions: 2.5, 5 and 10 µM single dose, 7 days
Experimental: (§1) U-2 OS cells were seeded at 5000 cells per well and HCT116 at 1500 cells per well, in 96-well black ULA plates (Ultra Low Adherence, Corning). After centrifugation at 200 g for 10 min, spheroids were incubated at 37 °C for 3 days in order to reach 400 µm in diameter. Compounds were then added at a single dose (2.5, 5, or 10 μM) and cell viability was measured after 7 days using the CellTiter-Glo® 3D Cell Viability Assay (Promega) following the manufacturer's protocol. Luminescence was measured using an EnVision® plate reader (Perkin Elmer).

HCT116 spheroids = assay: 3D spheroid viability; type: cell-based, human; conditions: 2.5, 5 and 10 µM single dose, 7 days
Experimental: as §1

MmCLK1, sequence (P22518 whole entry): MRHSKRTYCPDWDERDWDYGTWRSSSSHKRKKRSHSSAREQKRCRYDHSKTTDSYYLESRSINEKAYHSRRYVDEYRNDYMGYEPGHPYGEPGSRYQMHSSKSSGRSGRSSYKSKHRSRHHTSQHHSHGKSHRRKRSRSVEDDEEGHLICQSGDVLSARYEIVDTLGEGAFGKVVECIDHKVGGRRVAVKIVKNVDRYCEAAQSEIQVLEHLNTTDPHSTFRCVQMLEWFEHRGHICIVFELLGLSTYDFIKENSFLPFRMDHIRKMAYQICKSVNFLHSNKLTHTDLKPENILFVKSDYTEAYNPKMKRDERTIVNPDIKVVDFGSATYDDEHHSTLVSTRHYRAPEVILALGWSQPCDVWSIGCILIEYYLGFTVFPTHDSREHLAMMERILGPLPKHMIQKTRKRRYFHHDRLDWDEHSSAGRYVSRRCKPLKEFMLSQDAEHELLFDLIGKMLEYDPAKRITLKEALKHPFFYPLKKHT

Question: With COc1ccc2[nH]c3c(=O)[nH]c4ccc(O)cc4c3c2c1 [Compound 55, 2-Hydroxy-10-methoxy-5,7-dihydro-6H-indolo[2,3-c]quinolin-6-one] as the molecule, how does the “Inhibition of intracellular Haspin (H3T3ph signal)” value [1] read?
Answer: Its value is “could inhibit intracellular Haspin”.

Question: And the remaining activity at 1 µM (MmCLK1; 1 μM, mean n = 2, % of maximum activity of DMSO control, read-out: % Residual activity at 1 μM CLK1)?
Answer: The remaining activity at 1 µM was 14%.

Question: What about the “Selectivity index CLK1/Haspin” value (MmCLK1; IC50 CLK1/IC50 Haspin) of the same molecule?
Answer: The value was 17.

Question: What about the IC50 (MmCLK1; dose-response curve, each point in duplicate, read-out: Kinase inhibition (IC50) CLK1) of the same molecule?
Answer: The IC50 was 33 nM.

Question: And the “% of cycling cells G2/M” value (U-2 OS cells; DMSO control 6%)?
Answer: Its value is 20%.

Question: What about the “% of cycling cells S” value (U-2 OS cells; DMSO control 44%) of the same molecule?
Answer: The value was 44%.

Question: What about the “% of cycling cells G1” value (U-2 OS cells; DMSO control 50%) of the same molecule?
Answer: The value was 36%.

Question: And the “U-2 OS spheroid cell viability” value (U-2 OS spheroids)?
Answer: The value was “marked dose-dependent effect”.

Question: And the “HCT116 spheroid cell viability” value (HCT116 spheroids)?
Answer: Its value is “marked dose-dependent effect”.
